Measurements from US20220106547A1, “COMPOSITIONS AND METHODS OF USING PARTIAL GEL LAYERS IN A MICROFLUIDIC DEVICE” (Emulate, Inc., priority 2019, published 2022).

Columns and labels:
human neutrophils = assay: Neutrophil recruitment/adhesion in HRV infected Airway Chips; assay type: cell-based
Excerpt: In one embodiment, the present invention contemplates a method for reducing neutrophil adhesion using an IL-13 inhibitor. In one embodiment, the IL-13 inhibitor is a CXCR2 antagonist. In one embodiment, the IL-13 inhibitor is MK-7123. In one embodiment, the neutrophil adhesion is reduced by approximately seventy-five (75) percent (%). In one embodiment, the IL-13 recruits neutrophils by approximately two-fold.
This response was accompanied by a reduction in neutrophil velocity. FIG. 95A, 95B. Also observed was a significant twofold increase in neutrophil recruited between HRV infected chips and infected chips in presence of IL-13 (953 vs 1999; p<0.001). FIG. 95A. […] FIG. 95C.

[1] = test system: primary human hepatocytes; assay: Oxidative stress (MitoSox ROS events) in Liver-Chip hepatocytes; assay type: cell-based; details: 48 h exposure
Excerpt: Having shown that at least one embodiment of a Liver-Chip responds to alcohol, we explored the possibility of modeling the progression of ALD, as per the two- or one-hit and second-hit hypothesis, such that simple steatosis induced by alcohol requires a second hit (insult) for progression of ALD to ASH ref^69. Ethanol consumption in humans compromises the intestinal barrier function resulting in increased permeability to intestinal endotoxins, e.g. bacterial lipopolysaccharide (LPS), from the gut to the liver via the portal vein ref^18. Such a permeabalized leaky barrier is considered one of the “second hits” in the progression of ALD to inflammation (ASH) ref^70. Therefore, we tested whether exposure to ethanol and LPS together would worsen the Liver-Chip pathology.
Clinical data have shown the potential of the steatotic liver to repair the steatotic injury following timely abstinence from alcohol or with diet modifications ref^19. Thus, we assessed the responses of the “alcoholic” Liver-Chip to withdrawal from ethanol or ethanol+LPS. Treatment of the Liver-Chip for 48 h with ethanol or ethanol+LPS as above, was followed by a 5 day-long treatment-free “recovery” period. […]
Live cell staining. […] The stained chips were imaged using either an Olympus fluorescence microscope (IX83) or Zeiss confocal microscope (LSM880), and were de-blurred with Olympus cellSens software. […]

[2] = test system: bile canaliculi network of primary human hepatocytes; assay: Bile canaliculi (BC) network integrity, MRP-2 staining, Liver-Chip; assay type: cell-based; details: 0.08% ethanol with or without LPS, 48 h
Excerpt: A Tri-culture configuration includes primary hepatocytes cultured in the upper channel and primary liver sinusoidal endothelial cells (LSECs) cultured on the opposite side of the membrane, i.e. in the lower channel, along with Kupffer cells. As this design recapitulates elements of the hepatic sinusoid microenvironment ref^17, we were interested in recreating the bile canaliculi (BC) network that is established between neighboring hepatocytes. […] The latter together with the lack of a reproducible, quantitative manner to assess the integrity of the BC network have precluded the use of this clinical endpoint in preclinical studies. […] Based on these findings, we assessed the impact of various ECM scaffold compositions and patterning methods on BC integrity by using quantitative metrics to describe the MRP-2 stained BC network topology (FIG. 82A-E: Table 8. […]
To assess the effect of each ECM protocol on BC network formation, we quantified the MRP-2 stained BC network topology (see method sections on IF staining and Image analysis for details). […]
For measuring bile canaliculi network properties, MRP-2 stained chips were imaged at 40× using a confocal point-scanning microscope (Zeiss LSM880, Airyscan). […] In each field of view, a z-stack was recorded and combined using maximal intensity projection in order to fully capture the bile canaliculi network. […]

[3] = test system: primary human hepatocytes; details: 48 hrs
Excerpt: To this purpose we used fluorometric assays for biochemical markers of liver function, including albumin, cholesterol, glucose, and glycogen (FIG. 77A-B).
Liver-Chip culture. Liver-Chip culture was established according to our previously published protocol^74. […] Extracellular matrix sandwiching and composition in the Liver-Chip was optimized to support BC integrity (FIG. 81A-B and method sections below). On the other side of the membrane (the lower chamber of the chip) human primary LSECs (3 million cells/mL) and KCs (0.5 million cells/mL) were seeded to mimic the hepatic sinusoid architecture (FIG. 76A). The two cell compartments were perfused independently, and flow rates were optimized to enable optimal survival and maturation of the different cell types ref^74. In the Quad Liver-Chip experiments, primary human hepatic stellate cells (50,000 cells/mL) were mixed within the collagen coating (FibriCol at 0.5 mg/ml concentration) and add to activated chips and let incubate overnight before hepatocytes seeding on the top of the collagen and HSC mix. The seeded hepatocytes were overlaid with ECM as described in FIG. 81A-B and below, and maintained in William's E Medium (WEM) containing Glutamax (Gibco), ITS+ (Corning), dexamethasone (Sigma-Aldrich), ascorbic acid (Sigma-Aldrich), fetal bovine serum (Sigma-Aldrich), and penicillin/streptomycin (Sigma-Aldrich), and incubated at 37° C., 5% CO2. The vascular channel of the Liver-Chip was maintained with human endothelial media (Emulate, Inc.). Two days after seeding, the Liver-Chips were connected to the Human Emulation System™ (Emulate, Inc.) and both chip channels were perfused at 30 μL/h to provide a continuous supply of fresh medium for the duration of the experiments. At day 5 in culture, the basal medium was modified to DMEM low glucose (1 g/L) supplemented with non-essential amino acids solution (NEAA, 1:200 dilution), glutaMAX (Thermo Fisher) ascorbic acid (Sigma-Aldrich) and penicillin/streptomycin (Sigma-Aldrich). Moreover, ITS+ premix (Corning) was replaced by ITS (GIBCO, 1:500 dilution) in order to achieve a more physiological relevant concentration of insulin, while the FBS supplement was removed. Treatment. […] The Liver-Chip was maintained for 48h in treatment medium and either assayed or allowed to recover for 5 days in basal medium. Optimization of Liver-Chip ECM for BC integrity. We iteratively modified the original ECM coating protocol^74 in order to improve BC formation. Five different combinations of ECM composition and deposition strategy were tested (FIG. 82B), where ECM-A denoted the original protocol. Briefly, for ECM-A, top and bottom channels were coated by incubating with 100 μg/mL rat tail collagen-I (Corning) and 25 μ/mL fibronectin (Gibco) overnight at 37° C. […]

[4] = test system: primary human hepatocytes; details: 0.08% and 0.16% pooled vs vehicle
[5] = test system: primary human hepatocytes; assay: Lipid droplet accumulation (AdipoRed) in ALD Liver-Chip; details: ethanol 0.08% or 0.16%, oleic acid 1 μg/ml, up to 48 hrs
lung cells = assay: Viability/differentiation biomarker scoring of airway chip culture conditions; assay type: cell-based; details: airway S1 chip culture
Excerpt: In one embodiment, the present invention contemplates a method comprising scoring at least one cell biomarker and determining a viable and differentiated cell. For example, specific quantitative scores have been assigned to a set of cell biomarkers for viability and differentiation during chip cell culture maturation includes, but is not limited to, cell death (1), ciliation (2) cell attachment (3) cell movement/shape (4), cell overgrowth (5), cell invasion (6). See, FIG. 14.
As depicted, the score value increases as the viability/differentiation relevance of the cell biomarker decreases. In one embodiment, the cell death biomarker score value increases in proportion to increased cell death. In one embodiment, the ciliation biomarker score value increases in proportion to deceased ciliation. In one embodiment, the cell attachment biomarker score value increases in proportion to decreased cell attachment. In one embodiment, the cell movement/shape biomarker score value increases with decreased cell movement/shape. In one embodiment, the cell overgrowth biomarker score value increases with increased cell overgrowth. […]
Each coating can be seen to result in different score values that are independent of location in the cell culture device (e.g., Zoe). […] It is known that retinoic acid (RA) is readily absorbed by most microchip substrates. […]

[6] = test system: mucociliary bronchiolar epithelium (hAECs); assay: Effect of IL-13 on goblet cells and cilia beating frequency in Airway Chip; assay type: cell-based, human; details: IL-13 100 ng/mL, 7 days
Method: Cilia beating frequency (CBF) was measured by applying Fourier spectral analysis to high-speed video recordings of the ciliated surfaces. Using an inverted phase contrast microscope, the ciliated surfaces were recorded at 190-200 frames per second and at a resolution of 512 by 512 pixels, which corresponded to a field of view of 166 by 166 μm^2 (0.32 μm per pixel). Cilia beating was recorded at multiple randomly chosen fields of view (FOV) for each chip.
A first step of video processing was to identify regions of ciliary beating by computing a normalized standard deviation of an intensity value for each pixel across all frames. […] FIG. 104A-B.
In a further step, areas with ciliary motion were thresholded and the movie field of view was divided into 289 windows (ca. 10×10 μm^2 in size). For each window, a random set comprising 70% of all pixels with detected motion was further analyzed to detect the dominant beat frequency. For each sampled pixel, ciliary beat frequency was determined from a time-dependent fluctuation of pixel brightness reflecting the periodicities of the ciliary movement. A bandwidth filter (e.g., approximately 1 to 30 Hz) was applied to each pixel signal to remove noise. […] Thus, for each FOV, the number of measured CBFs was determined by the number of windows with usable signals (e.g., 289 windows). […]

CC[C@@H](Nc1c(Nc2cccc(C(=O)N(C)C)c2O)c(=O)c1=O)c1ccc(C)o1 [MK-7123, reference compound]
reduction of neutrophil adhesion (human neutrophils; stated as embodiment, MK-7123 10 μM in FIG. 95): ~75%

CCO [ethanol]
ROS events per nuclei [1]: dose-dependent increase in ROS events | dilated BC (cholestatic) areas [2]: areas of markedly dilated BCs | glycogen storage in cell lysates ([3]; 0.08% ethanol): trend for increase | albumin release [3]: not affected | cholesterol levels ([3]; human-relevant BACs, effluent and cell lysates): significant increase in cholesterol levels | glucose release ([3]; except toxic concentrations above 0.32%): no changes were detected | downregulated DE genes [4]: 36 | upregulated DE genes [4]: 87 | differentially expressed (DE) genes ([4]; adj. p<0.05, |log2FC|>1): 123 | steatosis (hepatic lipid accumulation) [5]: steatosis was induced

Bovine Serum Albumin (BSA): membrane coating layer of bovine serum albumin
cell viability and differentiation (scoring / morphological assessment) (lung cells): found to support the most viable and differentiated cells

CCCCCCCC/C=C\CCCCCCCC(=O)O [oleic acid, reference compound]
steatosis (hepatic lipid accumulation) [5]: steatosis was induced

IL-13: Th2 cytokine IL-13
reduction in cilia beating frequency [6]: 14.4% | goblet cells, total area ([6]; 16.5% without IL-13): 50.3% | neutrophil recruited (human neutrophils; HRV infected chips in presence of IL-13, 953 in HRV infected chips alone): 1999
